What was measured:
[1] = biological target: T1, human A2B receptors (Homo sapiens, UniProt P29275); test: Inhibition of human A2B receptor in recombinant HEK293 cells, cAMP quantification (HTRF); format: cell-based; conditions: read-out: A2B (Category)
T1 construct: expressed in transfected cells; host or cells: HEK293
T1 sequence (P29275 1-332): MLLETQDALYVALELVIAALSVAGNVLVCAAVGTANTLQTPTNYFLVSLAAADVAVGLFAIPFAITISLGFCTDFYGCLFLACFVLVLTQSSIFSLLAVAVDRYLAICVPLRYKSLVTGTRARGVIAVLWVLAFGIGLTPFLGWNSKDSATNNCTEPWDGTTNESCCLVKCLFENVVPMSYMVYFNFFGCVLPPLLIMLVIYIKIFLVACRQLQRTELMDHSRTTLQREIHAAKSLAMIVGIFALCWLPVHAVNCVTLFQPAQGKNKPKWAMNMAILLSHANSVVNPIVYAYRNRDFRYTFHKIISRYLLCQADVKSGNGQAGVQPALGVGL
Procedure: (§1) The functional activities of human A2A and A2B receptors were determined by quantification of cAMP, being the second messenger for adenosine receptors.
(§2) After a 15 min incubation, HTRF reagents (cAMP dynamic 2, Cis Bio) were added and the cellular cAMP levels were determined using the ENVISION (Perkin Elmer) plate reader.

[2] = biological target: T2, human A2A receptors (Homo sapiens, UniProt P29274); test: Inhibition of human A2A receptor in recombinant HEK293 cells, cAMP quantification (HTRF); format: cell-based; conditions: read-out: A2A (Category)
T2 construct: expressed in transfected cells; host or cells: HEK293
Procedure: as §1, §2

T2 sequence (P29274 whole entry): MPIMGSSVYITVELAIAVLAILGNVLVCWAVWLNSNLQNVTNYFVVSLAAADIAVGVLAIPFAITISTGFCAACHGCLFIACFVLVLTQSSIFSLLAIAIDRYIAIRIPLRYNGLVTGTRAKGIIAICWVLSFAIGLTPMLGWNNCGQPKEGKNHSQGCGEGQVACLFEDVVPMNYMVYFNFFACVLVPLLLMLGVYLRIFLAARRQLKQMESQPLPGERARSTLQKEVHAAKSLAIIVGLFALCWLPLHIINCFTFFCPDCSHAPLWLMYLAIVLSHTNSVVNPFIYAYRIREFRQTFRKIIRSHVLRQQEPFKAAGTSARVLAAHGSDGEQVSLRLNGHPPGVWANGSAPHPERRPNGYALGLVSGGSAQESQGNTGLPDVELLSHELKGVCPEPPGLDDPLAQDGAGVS

Row | Compound | IC50 [1] | IC50 [2]
1 | N#Cc1cccc(Nc2nn(CC(F)(F)F)c3cc(C(=O)N4CCCOCC4)ncc23)c1 [Compound 8, 3-[[6-(1,4-oxazepane-4-carbonyl)-1-(2,2,2-trifluoroethyl)pyrazolo[4,3-c]pyridin-3-yl]amino]benzonitrile] | < 1000 nM | < 100 nM
2 | O=C(c1cc2c(cn1)c(Nc1cc(F)cc(F)c1)nn2CC(F)(F)F)N1CCCOCC1 [Compound 15, [3-(3,5-difluoroanilino)-1-(2,2,2-trifluoroethyl)pyrazolo[4,3-c]pyridin-6-yl]-(1,4-oxazepan-4-yl)methanone] | < 1000 nM | < 100 nM
3 | Cc1ccc(Nc2nn(CC(F)(F)F)c3cc(C(=O)N4CCCOCC4)ncc23)cc1F [Compound 16, [3-(3-fluoro-4-methylanilino)-1-(2,2,2-trifluoroethyl)pyrazolo[4,3-c]pyridin-6-yl]-(1,4-oxazepan-4-yl)methanone] | < 100 nM | < 100 nM
4 | O=C(c1cc2c(cn1)c(Nc1ccc(F)c(Cl)c1)nn2CC(F)(F)F)N1CCCOCC1 [Compound 18, [3-(3-chloro-4-fluoroanilino)-1-(2,2,2-trifluoroethyl)pyrazolo[4,3-c]pyridin-6-yl]-(1,4-oxazepan-4-yl)methanone] | < 1000 nM | < 100 nM
5 | O=C(c1cc2c(cn1)c(Nc1ccc(Cl)c(F)c1)nn2CC(F)(F)F)N1CCCOCC1 [Compound 19, [3-(4-chloro-3-fluoroanilino)-1-(2,2,2-trifluoroethyl)pyrazolo[4,3-c]pyridin-6-yl]-(1,4-oxazepan-4-yl)methanone] | < 100 nM | < 100 nM
6 | O=C(c1cc2c(cn1)c(Nc1ccc(F)cc1)nn2CC(F)(F)F)N1CC2CCC(C1)O2 [Compound 21, [3-(4-fluoroanilino)-1-(2,2,2-trifluoroethyl)pyrazolo[4,3-c]pyridin-6-yl]-(8-oxa-3-azabicyclo[3.2.1]octan-3-yl)methanone] | < 100 nM | < 100 nM
7 | O=C(c1cc2c(cn1)c(Nc1cccc(F)c1)nn2CC(F)(F)F)N1CCC(O)CC1 [Compound 23, [3-(3-fluoroanilino)-1-(2,2,2-trifluoroethyl)pyrazolo[4,3-c]pyridin-6-yl]-(4-hydroxy-1-piperidyl)methanone] | < 100 nM | < 100 nM
8 | O=C(c1cc2c(cn1)c(Nc1cccc(F)c1)nn2CC(F)(F)F)N1[C@@H]2CC[C@H]1C[C@@H](O)C2 [Compound 25, [3-(3-fluoroanilino)-1-(2,2,2-trifluoroethyl)pyrazolo[4,3-c]pyridin-6-yl]-(3-endo-hydroxy-8-azabicyclo[3.2.1]octan-8-yl)methanone] | < 100 nM | < 100 nM
9 | O=C(c1cc2c(cn1)c(Nc1ccc(F)cc1)nn2CC(F)(F)F)N1[C@@H]2CC[C@H]1C[C@@H](O)C2 [Compound 26, [3-(4-fluoroanilino)-1-(2,2,2-trifluoroethyl)pyrazolo[4,3-c]pyridin-6-yl]-(3-endo-hydroxy-8-azabicyclo[3.2.1]octan-8-yl)methanone] | < 1000 nM | < 100 nM
10 | CS(=O)(=O)Cn1nc(Nc2cccc(F)c2)c2cnc(C(=O)N3CCCOCC3)cc21 [Compound 28, [3-(3-fluoroanilino)-1-(methylsulfonylmethyl)pyrazolo[4,3-c]pyridin-6-yl]-(1,4-oxazepan-4-yl)methanone] | < 100 nM | < 100 nM
11 | CS(=O)(=O)Cn1nc(Nc2ccccc2)c2cnc(C(=O)N3[C@@H]4CC[C@H]3C[C@@H](O)C4)cc21 [Compound 29, [3-anilino-1-(methylsulfonylmethyl)pyrazolo[4,3-c]pyridin-6-yl]-(3-endo-hydroxy-8-azabicyclo[3.2.1]octan-8-yl)methanone] | < 100 nM | < 100 nM

Further lines, results first:

Row | IC50 [1] | IC50 [2] | Compound
12 | < 1000 nM | < 100 nM | O=C(c1cc2c(cn1)c(Nc1ccccc1F)nn2CC(F)(F)F)N1CCCOCC1 [Compound 1, [3-(2-fluoroanilino)-1-(2,2,2-trifluoroethyl)pyrazolo[4,3-c]pyridin-6-yl]-(1,4-oxazepan-4-yl)methanone]
13 | < 1000 nM | < 100 nM | O=C(c1cc2c(cn1)c(Nc1ccccc1)nn2CC(F)(F)F)N1CCCOCC1 [Compound 2, [3-anilino-1-(2,2,2-trifluoroethyl)pyrazolo[4,3-c]pyridin-6-yl]-(1,4-oxazepan-4-yl)methanone]
14 | < 100 nM | < 100 nM | O=C(c1cc2c(cn1)c(Nc1cccc(F)c1)nn2CC(F)(F)F)N1CCCOCC1 [Compound 6, [3-(3-fluoroanilino)-1-(2,2,2-trifluoroethyl)pyrazolo[4,3-c]pyridin-6-yl]-(1,4-oxazepan-4-yl)methanone]
15 | < 100 nM | < 100 nM | COc1cccc(Nc2nn(CC(F)(F)F)c3cc(C(=O)N4CCCOCC4)ncc23)c1 [Compound 7, [3-(3-methoxyanilino)-1-(2,2,2-trifluoroethyl)pyrazolo[4,3-c]pyridin-6-yl]-(1,4-oxazepan-4-yl)methanone]
16 | < 1000 nM | < 100 nM | COc1ccc(Nc2nn(CC(F)(F)F)c3cc(C(=O)N4CCCOCC4)ncc23)cc1 [Compound 11, [3-(4-methoxyanilino)-1-(2,2,2-trifluoroethyl)pyrazolo[4,3-c]pyridin-6-yl]-(1,4-oxazepan-4-yl)methanone]
17 | < 1000 nM | < 100 nM | N#Cc1ccc(Nc2nn(CC(F)(F)F)c3cc(C(=O)N4CCCOCC4)ncc23)cc1 [Compound 13, 4-[[6-(1,4-oxazepane-4-carbonyl)-1-(2,2,2-trifluoroethyl)pyrazolo[4,3-c]pyridin-3-yl]amino]benzonitrile]
18 | < 1000 nM | < 100 nM | O=C(c1cc2c(cn1)c(Nc1ccc(F)c(F)c1)nn2CC(F)(F)F)N1CCCOCC1 [Compound 17, [3-(3,4-difluoroanilino)-1-(2,2,2-trifluoroethyl)pyrazolo[4,3-c]pyridin-6-yl]-(1,4-oxazepan-4-yl)methanone]
19 | < 1000 nM | < 100 nM | O=C(c1cc2c(cn1)c(Nc1cccc(F)c1)nn2CC(F)(F)F)N1CC2CCC(C1)O2 [Compound 20, [3-(3-fluoroanilino)-1-(2,2,2-trifluoroethyl)pyrazolo[4,3-c]pyridin-6-yl]-(8-oxa-3-azabicyclo[3.2.1]octan-3-yl)methanone]
20 | < 100 nM | < 100 nM | O=C(c1cc2c(cn1)c(Nc1ccc(F)cc1)nn2CC(F)(F)F)N1CCC(O)CC1 [Compound 22, [3-(4-fluoroanilino)-1-(2,2,2-trifluoroethyl)pyrazolo[4,3-c]pyridin-6-yl]-(4-hydroxy-1-piperidyl)methanone]
21 | < 100 nM | < 100 nM | O=C(c1cc2c(cn1)c(Nc1ccccn1)nn2CC(F)(F)F)N1CCC(O)CC1 [Compound 24, (4-hydroxy-1-piperidyl)-[3-(2-pyridylamino)-1-(2,2,2-trifluoroethyl)pyrazolo[4,3-c]pyridin-6-yl]methanone]
22 | < 1000 nM | < 100 nM | CS(=O)(=O)Cn1nc(Nc2ccc(F)cc2)c2cnc(C(=O)N3CCCOCC3)cc21 [Compound 27, [3-(4-fluoroanilino)-1-(methylsulfonylmethyl)pyrazolo[4,3-c]pyridin-6-yl]-(1,4-oxazepan-4-yl)methanone]

Source: patent US12194051B2, “5-azaindazole derivatives as adenosine receptor antagonists” (MERCK PATENT GMBH, priority 2018, dated 2025)
